Data as given in patent US20260042764A1, “COMPOSITIONS AND METHODS FOR INHIBITION OF KRAS” (TheRas, Inc., priority 2022, published 2026).

What was measured:
[1] = target: T1, Avi-KRAS G12D (1-169) GppNHp/RAF1 RBD-3xFLAG (52-151) (Homo sapiens, UniProt P01116, G12D); experiment: Raf1-KRAS G12D-GppNHP disruption HTRF assay (Biological Example 1); format: binding; details: KRAS G12D, GppNHp-loaded
T1 construct: Avi-KRAS G12D (1-169)
Procedure, shortened: (§1)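 Compound disruption of KRAS-GppNHp/RAF1 RBD binding read by HTRF after two sequential 1 h room-temperature incubations (protein mix, then detection reagents), shaken at 700 rpm. Buffer Tris pH 7.5 with MgCl2, BSA, Tween and 10% DMSO; results given as percent activity relative to DMSO (100%).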

[2] = target: T2, Avi-KRAS G12V (1-169) GppNHp/RAF1 RBD-3xFLAG (52-151) (Homo sapiens, UniProt P01116, G12V); experiment: Raf1-KRAS G12V-GppNHP disruption HTRF assay (Biological Example 1); format: binding; details: KRAS G12V, GppNHp-loaded
T2 construct: Avi-KRAS G12V (1-169)
T2 sequence (P01116 1-169 isoform P01116-2 G12V): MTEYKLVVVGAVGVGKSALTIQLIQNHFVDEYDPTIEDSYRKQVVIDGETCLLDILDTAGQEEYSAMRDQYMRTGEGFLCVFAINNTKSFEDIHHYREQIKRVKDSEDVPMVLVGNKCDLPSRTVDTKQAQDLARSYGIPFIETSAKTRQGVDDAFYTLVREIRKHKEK
Procedure, shortened: as §1

[3] = target: T3, Avi-KRAS G12R (1-169) GppNHp/RAF1 RBD-3xFLAG (52-151) (Homo sapiens, UniProt P01116, G12R); experiment: Raf1-KRAS G12R-GppNHP disruption HTRF assay (Biological Example 1); format: binding; details: KRAS G12R, GppNHp-loaded
T3 construct: Avi-KRAS G12R (1-169)
T3 sequence (P01116 1-169 isoform P01116-2 G12R): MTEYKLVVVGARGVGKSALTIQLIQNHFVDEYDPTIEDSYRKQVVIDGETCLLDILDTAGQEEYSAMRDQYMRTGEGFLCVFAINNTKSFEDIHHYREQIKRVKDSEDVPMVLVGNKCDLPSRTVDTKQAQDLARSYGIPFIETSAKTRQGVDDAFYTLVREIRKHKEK
Procedure, shortened: as §1

SW620 cells (KRAS G12V) = experiment: Cell-based pERK HTRF assay in SW620 cell (Biological Example 4); details: Homo sapiens, SW-620, SW620 (KRAS G12V) cells, pERK HTRF
Procedure, shortened: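 SW620 seeded in RPMI/10% FBS, next day dosed 4 h (top 1 μM, half-log, 9 pts, 0.25% DMSO). Lysed, pERK by d2/Eu cryptate HTRF, 4–24 h RT, 615 nm read.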

[4] = target: T4, Avi-KRAS WT (1-169) GppNHp/RAF1 RBD-3xFLAG (52-151) (Homo sapiens, UniProt P01116); experiment: Raf1-KRAS WT-GppNHP disruption HTRF assay (Biological Example 1); format: binding; details: KRAS WT, GppNHp-loaded
T4 construct: Avi-KRAS WT (1-169)
T4 sequence (P01116 1-169 isoform P01116-2): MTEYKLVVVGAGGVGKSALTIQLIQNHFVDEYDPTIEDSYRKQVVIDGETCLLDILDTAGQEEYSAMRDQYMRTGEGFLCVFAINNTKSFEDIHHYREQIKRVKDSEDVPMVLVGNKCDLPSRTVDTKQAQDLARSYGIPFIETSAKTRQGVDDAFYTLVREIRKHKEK
Procedure, shortened: as §1

GP2d cells (KRAS G12D) = experiment: Cell-based pERK HTRF assay in GP2d cell (Biological Example 2); details: GP2d, GP2d (KRAS G12D) cells, pERK HTRF
Procedure, shortened: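 HTRF read-out of pERK (excitation 320 nm, emission 615 nm) after lysates sat 4–24 h at room temperature with Eu cryptate and d2 antibodies.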

T1 sequence (P01116 1-169 isoform P01116-2 G12D): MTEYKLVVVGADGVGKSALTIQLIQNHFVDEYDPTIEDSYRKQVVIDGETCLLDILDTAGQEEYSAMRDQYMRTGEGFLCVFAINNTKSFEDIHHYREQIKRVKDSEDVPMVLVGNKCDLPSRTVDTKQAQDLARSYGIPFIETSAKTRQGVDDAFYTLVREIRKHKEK

| IC50 ([1]; Table 11) | IC50 ([2]; Table 11) | IC50 ([3]; Table 11) | IC50 (SW620 cells (KRAS G12V)) | IC50 ([4]; Table 11) | IC50 (GP2d cells (KRAS G12D)) | IC50 ([1]; class symbols) | IC50 ([2]; class symbols) | IC50 ([3]; class symbols) | IC50 (SW620 cells (KRAS G12V); class symbols) | IC50 ([4]; class symbols) | IC50 (GP2d cells (KRAS G12D); class symbols) | SMILES |
| --- | --- | --- | --- | --- | --- | --- | --- | --- | --- | --- | --- | --- |
| – | – | – | – | – | – | < 100 nM | < 100 nM | < 100 nM | < 100 nM | < 100 nM | < 100 nM | CCN(c1nc(OC[C@@]23CCCN2C[C@H](F)C3)nc2c(F)c(-c3ccc(F)c4sc(N)c(C#N)c34)c(C(F)(F)F)cc12)[C@H]1CCN(C(=O)C(C)(F)F)C1 (atropisomer, axis not shown) [Compound 587] |
| – | – | – | – | – | – | < 100 nM | < 100 nM | < 100 nM | < 100 nM | < 100 nM | < 100 nM | CCN(c1nc(OC[C@@]23CCCN2C[C@H](F)C3)nc2c(F)c(-c3ccc(F)c4sc(N)c(C#N)c34)c(C(F)(F)F)cc12)[C@H]1C[C@H]2CN(C3CCC3)C(=O)N2C1 (atropisomer, axis not shown) [Compound 757] |
| – | – | – | – | – | – | < 100 nM | < 100 nM | < 100 nM | < 100 nM | < 100 nM | < 100 nM | C=C(F)C(=O)N1CC[C@H](N(CC)c2nc(OC[C@@]34CCCN3C[C@H](F)C4)nc3c(F)c(-c4ccc(F)c5sc(N)c(C#N)c45)c(C(F)(F)F)cc23)C1 (atropisomer, axis not shown) [Compound 676] |
| – | – | – | – | – | – | < 100 nM | < 100 nM | < 100 nM | < 100 nM | < 100 nM | < 100 nM | CCN(c1nc(OC[C@@]23CCCN2C[C@H](F)C3)nc2c(F)c(-c3ccc(F)c4sc(N)c(C#N)c34)c(C(F)(F)F)cc12)[C@H]1CCN(C(=O)N2C[C@H]3C[C@@H]2CO3)C1 (atropisomer, axis not shown) [Compound 653] |
| – | – | – | – | – | – | 100 to 1000 nM | 100 to 1000 nM | 100 to 1000 nM | < 100 nM | 100 to 1000 nM | < 100 nM | CCN(c1nc(OC[C@@]23CCCN2C[C@H](F)C3)nc2c(F)c(-c3ccc(F)c4sc(N)c(C#N)c34)c(C(F)(F)F)cc12)[C@H]1C[C@@H]2CCOC(=O)N2C1 (atropisomer, axis not shown) [Compound 665] |

Second part, the molecule before the results:

| SMILES | IC50 ([1]; Table 11) | IC50 ([2]; Table 11) | IC50 ([3]; Table 11) | IC50 (SW620 cells (KRAS G12V)) | IC50 ([4]; Table 11) | IC50 (GP2d cells (KRAS G12D)) | IC50 ([1]; class symbols) | IC50 ([2]; class symbols) | IC50 ([3]; class symbols) | IC50 (SW620 cells (KRAS G12V); class symbols) | IC50 ([4]; class symbols) | IC50 (GP2d cells (KRAS G12D); class symbols) |
| --- | --- | --- | --- | --- | --- | --- | --- | --- | --- | --- | --- | --- |
| CN(C)C(=O)c1cc2n(n1)CCCN(c1nc(OC[C@@]34CCCN3C[C@H](F)C4)nc3c(F)c(-c4ccc(F)c5sc(N)c(C#N)c45)c(C(F)(F)F)cc13)C2 [Compound 256] | < 100 nM | 100 to 1000 nM | 100 to 1000 nM | < 100 nM | 100 to 1000 nM | < 100 nM | – | – | – | – | – | – |
| CCN(c1nc(OC[C@@]23CCCN2C[C@H](F)C3)nc2c(F)c(-c3ccc(F)c4sc(N)c(C#N)c34)c(C(F)(F)F)cc12)[C@@H]1CCN(C(=O)[C@@H]2CC2(F)F)[C@@H]1C (atropisomer, axis not shown) [Compound 808] | – | – | – | – | – | – | < 100 nM | < 100 nM | < 100 nM | < 100 nM | < 100 nM | < 100 nM |
| Cc1c(C(=O)N2CCC2)nn2c1CN(c1nc(OCC34CCCN3CC(F)C4)nc3c(F)c(-c4ccc(F)c5sc(N)c(C#N)c45)c(C(F)(F)F)cc13)CC2 (stereo not drawn) [Compound 742] | – | – | – | – | – | – | 100 to 1000 nM | 100 to 1000 nM | 100 to 1000 nM | < 100 nM | 1000 to 10000 nM | < 100 nM |
| N#Cc1c(N)sc2c(F)ccc(-c3c(C(F)(F)F)cc4c(N5C[C@H]6C[C@@H]5CO6)nc(OC[C@]56C[C@@H](F)CN5CC5(CC5)C6)nc4c3F)c12 [Compound 595] | – | – | – | – | – | – | 1000 to 10000 nM | 1000 to 10000 nM | 1000 to 10000 nM | < 100 nM | 1000 to 10000 nM | < 100 nM |
| COCCN(C)c1nc(OC[C@@]23CCCN2C[C@H](F)C3)nc2c(F)c(-c3ccc(F)c4sc(N)c(C#N)c34)c(C(F)(F)F)cc12 [Compound 167] | 100 to 1000 nM | 100 to 1000 nM | 100 to 1000 nM | < 100 nM | 100 to 1000 nM | < 100 nM | – | – | – | – | – | – |
| CN(C[C@H](F)CO)c1nc(OC[C@@]23CCCN2C[C@H](F)C3)nc2c(F)c(-c3ccc(F)c4sc(N)c(C#N)c34)c(C(F)(F)F)cc12 [Compound 216] | 100 to 1000 nM | 100 to 1000 nM | 100 to 1000 nM | < 100 nM | 100 to 1000 nM | < 100 nM | – | – | – | – | – | – |
